# Key:
# [1] = system: Mycobacterium smegmatis strain M6-3; assay: Relative antibacterial potency, paper-disc agar diffusion method; format: cell-based; details: relative to tallysomycin A standard=1000 mcg/mg
# Procedure: The relative antibacterial potencies (tallysomycin A standard=1000 mcg/mg) of the tallysomycin derivatives were determined by the paper-disc agar diffusion method using Mycobacterium smegmatis strain M6-3 as the assay organism.
# [2] = system: Melanotic melanoma B16; assay: Antitumor activity in mice, melanotic melanoma B16; format: in vivo, BDF1 mice; details: copper-chelated form unless otherwise stated; for Antitumor activity B16 (ID50): ip, once daily 9 days, 50% inhibition of tumor growth, day 16, 23040 min; for Antitumor therapeutic index B16: single dose LD50/ID50
# In short: (§1)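 P388 (3×10^5 cells) and Lewis lung (5×10^5) i.p. in BDF1 mice, B16 (5×10^5) s.c. in BDF1, Sarcoma 180 ([…]) i.p. in male dd mice. ED125 (Sarcoma 180 ED150) from median-survival T/C, 45 days; B16 ID50 from day-16 tumor size.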
# [3] = system: Lymphocytic leukemia P388; assay: animal or person; format: in vivo, BDF1 mice; details: copper-chelated form unless otherwise stated
# In short: as §1
# [4] = system: Escherichia coli NIHJ; assay: MIC, two-fold agar dilution method; format: cell-based; details: nutrient agar
# In short: (§2)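 Compounds are diluted two-fold through agar plates: Sabouraud medium for the fungus, nutrient medium for the bacterial strains, including the acid-fast Mycobacterium 607. Organisms are then applied and the minimum inhibitory concentration is recorded.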
# [5] = system: Proteus mirabilis A9554; assay: MIC, two-fold agar dilution method; format: cell-based; details: nutrient agar
# In short: as §2
# [6] = system: Mycobacterium 607; assay: MIC, two-fold agar dilution method; format: cell-based; details: nutrient agar
# In short: (§3)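 Agar dilution (2-fold series) on nutrient agar (bacteria) or Sabouraud agar (fungi).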
# [7] = system: Staphylococcus aureus Smith; assay: MIC, two-fold agar dilution method; format: cell-based; details: nutrient agar
# In short: as §3
# [8] = system: Bacillus subtilis PCI 219; assay: MIC, two-fold agar dilution method; format: cell-based; details: nutrient agar
# In short: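 Two-fold agar dilution; nutrient agar for bacteria, Sabouraud agar for A. fumigatus. MIC = lowest inhibitory concentration.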
# [9] = system: Candida albicans IAM 4888; assay: MIC, two-fold agar dilution method; format: cell-based; details: Sabouraud agar
# In short: as §2
# [10] = system: Sarcina lutea PCI1001; assay: MIC, two-fold agar dilution method; format: cell-based; details: nutrient agar
# In short: as §3
# [11] = system: Aspergillus fumigatus IAM 2593; assay: MIC, two-fold agar dilution method; format: cell-based; details: Sabouraud agar
# In short: as §3
# [12] = system: lysogenic bacterium E. coli W1709 (λ); assay: Prophage induction of lysogenic bacterium (ILB activity); format: cell-based; details: t/c ratio of plaque counts greater than 3.0
# In short: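 Plaques counted on agar plates containing test compound and on control plates, following Lein et al. A test/control plaque ratio above 3.0 counted as significant. Value given as the minimum inducible concentration.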
# [13] = Acute toxicity, single dose LD50; format: in vivo, dd mice; details: ip, 30 days observation, copper-chelated form unless otherwise stated
# Procedure: (§4) Graded doses of test compounds were administered intraperitoneally to groups of dd mice. The injection was given one time only or once daily for 9 consecutive days. Death or survival of the animals was recorded for 30 days after the last dose of test compound to calculate the single or multiple median lethal dose (LD50).
# [14] = system: Lewis lung carcinoma; assay: Antitumor activity in mice, Lewis lung carcinoma; format: in vivo, BDF1 mice; details: copper-chelated form unless otherwise stated
# In short: as §1
# [15] = Subacute toxicity, multiple dose LD50; format: in vivo, dd mice; details: ip, once daily 9 days, 30 days observation; copper-chelated form unless otherwise stated
# Procedure: as §4
# [16] = system: Sarcoma 180; assay: animal or person; format: in vivo, dd-strain mice; details: copper-chelated form unless otherwise stated; for Antitumor activity S180 (ED150): ip, once daily 9 days, effective dose 150, survival; for Antitumor therapeutic index S180: single dose LD50/ED150
# In short: as §1
# [17] = system: malignant tumors; assay: Initial studies using experimental animals: antitumor activity; format: in vivo; details: broad spectrum of malignant tumors; copper-free and copper-chelated forms
# [18] = in vivo
# [19] = in vivo; remark: listed apart in the source
# [20] = Nephrotoxicity in a mouse model utilizing BUN measurement; format: in vivo; details: compared with bleomycin at equitoxic doses
SMILES,Antibacterial potency [1],Antitumor activity B16 (ID50) [2] [mg/kg/day],Antitumor therapeutic index B16 [2],minimum inhibitory concentration (MIC) [4],minimum inhibitory concentration (MIC) [5],minimum inhibitory concentration (MIC) [6],minimum inhibitory concentration (MIC) [7],minimum inhibitory concentration (MIC) [8],minimum inhibitory concentration (MIC) [9],minimum inhibitory concentration (MIC) [10],minimum inhibitory concentration (MIC) [11],ILB activity (minimum inducible concentration) [12] [µg/mL],LD50 single dose [13] [mg/kg/day],Antitumor activity S180 (ED150) [16] [mg/kg/day],Antitumor therapeutic index S180 [16],further results
Cc1c(N)nc(C(CC(N)=O)NCC(N)C(N)=O)nc1C(=O)NC(C(=O)NC(C)C(O)CC(=O)NC(C(=O)NC(OC1OC(C)C(N)C(O)C1O)C(O)c1nc(-c2nc(C(=O)NCCNCC(C)O)cs2)cs1)C(C)O)C(OC1OC(CO)C(O)C(O)C1OC1OC(CO)C(O)C(OC(N)=O)C1O)c1c[nH]cn1 (centres unmarked) [Tallysomycin S5b],500 μ/mg,0.31,148,0.4,3.1,0.2,6.3,0.025,25,12.5,0.4,0.08,46,0.10,460,"Antitumor activity P388 (ED125) ([3]; ip, once daily 9 days, dose giving T/C survival of 125%): 0.66 mg/kg/day; Antitumor therapeutic index P388 ([3]; single dose LD50/ED125): 70; Antitumor activity Lewis lung (ED125) ([14]; ip, once daily 11 days, dose giving T/C survival of 125%): 0.38 mg/kg/day; Antitumor therapeutic index Lewis Lung ([14]; single dose LD50/ED125): 121; LD50 multiple dose (qd 1 → 9) [15]: 4.0 mg/kg/day"
Cc1c(N)nc([C@H](CC(N)=O)NC[C@H](N)C(N)=O)nc1C(=O)N[C@H](C(=O)N[C@H](C)[C@@H](O)CC(=O)N[C@H](C(=O)NC(O[C@@H]1O[C@@H](C)[C@@H](N)[C@@H](O)[C@H]1O)C(O)c1nc(-c2nc(C(=O)NCCCCN)cs2)cs1)[C@@H](C)O)[C@@H](O[C@@H]1O[C@@H](CO)[C@@H](O)[C@H](O)[C@@H]1O[C@H]1O[C@H](CO)[C@@H](O)[C@H](OC(N)=O)[C@@H]1O)c1cnc[nH]1 (some centres unmarked) [Tallysomycin S10b],"1,100 μ/mg",0.59,46,0.8,3.1,0.2,6.3,0.2,12.5,3.1,6.3,0.31,27,0.03,900,"antitumor activity [17]: excellent antitumor activity against a broad spectrum of malignant tumors; undesirable side effects (e.g. nephrotoxicity) [18]: less undesirable side effects (e.g. nephrotoxicity) than the naturally-occurring tallysomycin A and B; dose response slope, lung hydroxyproline [19]: flatter than that observed with bleomycin; hydroxyproline content at high doses [19]: reduced compared to that of animals treated with bleomycin at equitoxic doses; lung hydroxyproline [19]: caused an increase in lung hydroxyproline suggesting pulmonary toxicity; toxicity to the kidney (BUN) [20]: no greater than that of bleomycin at equitoxic doses"
